Test [1] deals with Liposome. Put plainly: Mannose concentrations required for 50% turbidity reduction on the Surface of Liposomes. In kind it is functional, subcellular.
The subject of test [2] is Liposome. Put plainly: Mannose concentrations required for 50% turbidity reduction n the Surface of Liposomes. In kind it is functional, subcellular.

The structures appear in SMILES notation. “And” between values parts separate entries of the source, which are not always exact repeats. Equal entries are not always repeated.

Usually IC50 stands for the midpoint of a concentration-inhibition curve.

Consider `CCCCCCCC/C=C\CCCCCCCCOCC(COCCOCCOCCOCCNC(=O)CCS[C@H]1OC(CO)[C@@H](O)[C@@H](O)C1O)OCCCCCCCC/C=C\CCCCCCCC` (some centres not stated), for which, in test [1], the IC50 was 2 mM and 4 mM and 5 mM. `CCCCCCCC/C=C\CCCCCCCCOCC(COCCOCCOCCOCCNC(=O)C(CCCCNC(=O)C(CCCCNC(=O)COCCOCCS[C@@H]1O[C@H](CO)[C@@H](O)[C@@H](O)[C@@H]1O)NC(=O)COCCOCCS[C@@H]1O[C@H](CO)[C@@H](O)[C@@H](O)[C@@H]1O)NC(=O)C(CCCCNC(=O)COCCOCCS[C@@H]1O[C@H](CO)[C@@H](O)[C@@H](O)[C@@H]1O)NC(=O)COCCOCCS[C@@H]1O[C@H](CO)[C@@H](O)[C@@H](O)[C@@H]1O)OCCCCCCCC/C=C\CCCCCCCC` (some centres not stated): the IC50 in test [2] was 20 mM and 30 mM and 50 mM.

These data come from ChEMBL document CHEMBL1136135, “Synthesis of an amphiphilic tetraantennary mannosyl conjugate and incorporation into liposome carriers” (Bioorg Med Chem Lett, 2003).
